Legend:
[1] = molecular target: T1, AA amyloid (Mus musculus, UniProt P05367); test: In vivo binding of ^125I-p66 in AA mice (microautoradiography, SPECT/CT, biodistribution)
T1 construct: from tissue; host or cells: organs of living H2-L^d-huIL-6 Tg Balb/c mice after AEF injection
T1 sequence (P05367 20-94 limits assumed): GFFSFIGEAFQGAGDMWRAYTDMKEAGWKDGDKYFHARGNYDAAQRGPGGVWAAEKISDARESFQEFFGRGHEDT
Experimental: (§1) Systemic visceral AA amyloidosis was induced in H2-L^d-huIL-6 Tg Balb/c transgenic mice that constitutively express the human interleukin-6 transgene, by iv injection of 10 μg of purified, splenic AA amyloid (amyloid enhancing factor; AEF) in 100 μL of sterile phosphate-buffered saline (PBS). Peptide p66 was evaluated in mice at 4-6 wk post AEF injection when amyloid load was significant.
Imaging was performed using WT or AA amyloid mice (n=3) that were injected with ˜5 μg of ^125I-p66, 125 μCi in the lateral tail vein. After the appropriate uptake time (data for 4 and 72 h pi shown), mice were euthanized by isoflurane inhalation overdose. SPECT images were acquired using an Inveon trimodality imaging platform (Siemens Preclinical Solution, Knoxville, Tenn.) running Inveon Acquisition Workplace software (ver. 2.0). Low energy (^125I; 25-45 keV) gamma photons were acquired at each of 60, 16-sec projections with 90 mm of bed travel. […]
Samples of liver, spleen, pancreas, kidneys, small and large intestines, stomach and heart were harvested post mortem from every mouse undergoing imaging with ^125I-p66. A sample of each was placed into a tared, plastic vial, weighed and the ^125I radioactivity measured using an automated Wizard 3 gamma counter (1480 Wallac Gamma Counter, Perkin Elmer). The biodistribution data were expressed as % injected dose/g tissue (% ID/g). […]

[2] = tested on: healthy tissues; test: In vivo ^125I-p66 in healthy WT mice (microautoradiography); details: autoradiography
Experimental: Imaging was performed using WT or AA amyloid mice (n=3) that were injected with ˜5 μg of ^125I-p66, 125 μCi in the lateral tail vein. After the appropriate uptake time (data for 4 and 72 h pi shown), mice were euthanized by isoflurane inhalation overdose. SPECT images were acquired using an Inveon trimodality imaging platform (Siemens Preclinical Solution, Knoxville, Tenn.) running Inveon Acquisition Workplace software (ver. 2.0). Low energy (^125I; 25-45 keV) gamma photons were acquired at each of 60, 16-sec projections with 90 mm of bed travel. A 1 mm-diameter, 5-pinhole (Mouse Whole Body) collimator was used at 30 mm from the center of the field of view. Data were reconstructed post hoc onto an 88×88×312 matrix with isotropic 0.50 mm voxels using a 3D ordered subset expectation maximization (OSEM) algorithm (8 iterations; 6 subsets).
(§2) For autoradiography, 6-μm-thick sections were cut from formalin-fixed, paraffin-embedded blocks, containing tissues from mice that had received […]. The sections were placed on Plus microscope slides (Fisher Scientific), dipped in NTB-2 emulsion (Eastman Kodak), stored in the dark, and developed after a 4 day exposure. Each section was counterstained with hematoxylin and eosin.
All tissue sections were examined using a Leica DM500 light microscope fitted with cross-polarizing filters (for Congo red). […]

[3] = molecular target: T1, AA amyloid; test: In vivo pre-targeting of ^125I-11-1F4 to systemic AA amyloid; parameters: species or system mice
Experimental: as §1, with “p66 pre-targeting of ^125I-11-1F4” for “p66”, “3-4” for “4-6”, “modest.” for “significant.”
Three cohorts of 3 mice, each received ˜400 μg of unlabeled peptide p66, and a second group of 3 cohorts were given peptide p5+14 as a control. Twenty-four hours after the peptide injection all mice were administered ˜150 μCi (˜20 μg) of ^125I-11-1F4 IV in the lateral tail vein. One group of p66 mice (n=3) and one group of p5+14 control mice (n=3) were euthanized at 24, 48 and 72 h post injection of 11-1F4 mAb and the organs harvested at necropsy for fixation, followed by microautoradiographic and immunohistochemical analyses.
as §2
Formalin-fixed paraffin embedded tissue sections, from mice treated with p66 peptope or peptide p5+14 were subjected to antigen retrieval using citrate buffer (pH 6; Dako) 30 min at 90° C. The tissue was then blocked with hydrogen peroxide, casein, and avidin and biotin, per manufacturer's instructions. The biotinylated peptide-reactive mAb (clone 12-3 [described above]) was then added (1.6 μg/mL in PBS) an the samples incubated for 2 h at RT, O/N at 4° C., followed by another 2 h period at RT. […]
The presence of macrophages was detected by staining with mAb Iba-1 (1:8000 diln) followed by addition of biotinylated rabbit anti-mouse secondary reagent (Vector Rabbit Elite kit). […]

Substance: KAQKAQAKQAKQAQKAQKAQAKQAKQAQKAQKAQAKQAKQ SVTVVT KHYAAFPENLLI [p66]
- time post injection at which amyloid in the liver could be readily visualized by SPECT imaging ([1]; AA mice, ^125I-p66): at least 72 h
- binding of radiolabeled peptide to amyloid deposits in vivo ([1]; mice with systemic AA amyloidosis, iv, autoradiography vs Congo red): specifically bound the amyloid deposits
- binding of radiolabeled peptide to healthy tissues in vivo [2]: did not bind to any tissue that was studied
- co-localization of ^125I-11-1F4 with AA amyloid after peptide pre-targeting ([3]; 24 h post injection of 11-1F4 mAb, peptide given 24 h before mAb): exclusively co-localized with the p66-coated AA amyloid
- liver macrophage infiltration (Iba-1 staining) ([3]; 72 h post injection of 11-1F4 mAb, peptide pre-injected, preliminary data): induced macrophage infiltration into the liver and clustering of macrophages around amyloid deposits to a greater degree

— patent US10046050B2, “Targeting immunotherapy for amyloidosis” (UNIVERSITY OF TENNESSEE RESEARCH FOUNDATION, priority 2014, dated 2018)
